Measurements reported in patent US11701369B2, “Polymeric bile acid derivatives inhibit Hepatitis B and D virus and NTCP transport” (Huahui Health Ltd., priority 2014, dated 2023).
“Also recorded” adds a separate entry of the source.

Key:
HBV [1] = test: In vitro stability: incubation with HBV inocula before infection, HBeAg ELISA; type: cell-based, Hepatitis B virus; conditions: incubated with HBV inocula for different times before infection, HBeAg at 5 dpi
Procedure: FIG. 10 The influence of the linkage groups on the in vitro stability of PBADs. TUDCA, NQL018, NQL044, and NQL055 were incubated with HBV inocula of different times before viral infection, and present in the inocula during infection period. The level of secreted HBeAg was detected by ELISA at 5 dpi.
The in vitro stability of PBADs could PBADs could be enhanced by optimization of the linkage bond. We conducted stability analysis of several PBADs with similar structure but of different linkage. […] This indicates the in vitro and in vivo stability is to a large extent determined by the feature of the linkage groups.

HBV [2] = test: HBV infection assay on HepaRG cells (HBsAg and HBeAg ELISA); type: cell-based, Hepatitis B virus; conditions: HBsAg and HBeAg at 5 dpi
Procedure: FIG. 11 HepaRG cells were infected with HBV in the presence of indicated PBADs. The level of secreted HBsAg and HBeAg was detected by ELISA at 5 dpi.
The antiviral potency of PBADs is also repeatable on other HBV infection system (HepaRG) with similar inhibition profile. […] HBV infection was conducted in the presence of NQL028, NQL018, NQL029, NQL019 and NQL021, all of which were bis-ester based PBADs with different linkage length.

HBV [3] = test: HBV infection assay on HepG2-NTCP cells (secreted HBeAg by ELISA); type: cell-based, Hepatitis B virus; conditions: HepG2-NTCP cells, secreted HBeAg
Procedure: (§1) HBV and HDV infection assay. HepG2NTCP Cells were cultured in PMM for 12-24 hrs before infection, and then inoculated with 200 multiplicities of genome equivalents (mge) of HBV, or 500 mge of HDV in the presence of 5% PEG8000 in PMM at 37° C. for about 24 hrs. Chemicals to be tested were added to the cells as indicated in the specific assays. The inoculum was replenished by PMM post infection. The infections were detected at day 5 post infection (dpi).
ELISA assay for the detection of HBeAg and HBsAg. ELISA kits for HBeAg and HBsAg detection were from Wantai Pharm Inc. (Beijing, China). Supernatant from infected HepG2NTCP cells was collected on 2-5 days post infection. The secreted HBeAg and HBsAg in the culture medium was measured with a commercial kit from Wantai Pharm Inc (Beijing, China) by following the manufactory's instructions.

HDV = HDV infection assay on HepG2-NTCP cells (intracellular delta antigen staining); type: cell-based, Hepatitis D virus
Procedure: as §1
Immunostaining assay. For HBV infection, infected cells were washed twice with PBS and fixed in 3.7% paraformaldehyde (PFA) at room temperature for 10 mins. Subsequently, cells were permeabilized with 0.5% Trition X-100/PBS for 10 mins at room temperature, blocked with 3% BSA at 37° C. for 1 hour, and followed by incubating with 5 μg/ml mouse mAb1C10 which recognizes HBcAg, and followed by staining with FITC-conjugated secondary antibody. Nucleus was stained with DAPI in blue. The stained cells were imaged with the fluorescence microscope (Nikon). For HDV infection, on 5 dpi, HDV infected cells were fixed with 100% methanol at room temperature for 10 mins, intracellular delta antigens were then stained with 5 μg/ml of FITC conjugated 4G5 and nucleus were stained with DAPI in blue. Images were collected by an Eclipse Ti Fluorescence Microscope (Nikon) and a representative picture is shown.

NTCP = molecular target: T1, NTCP (Homo sapiens, UniProt Q14973); test: [3H] taurocholate uptake assay on HepG2-NTCP cells; type: cell-based; conditions: co-incubation assay, [3H] taurocholate, 10 min
T1 construct: expressed in transfected cells
T1 sequence (Q14973 1-349): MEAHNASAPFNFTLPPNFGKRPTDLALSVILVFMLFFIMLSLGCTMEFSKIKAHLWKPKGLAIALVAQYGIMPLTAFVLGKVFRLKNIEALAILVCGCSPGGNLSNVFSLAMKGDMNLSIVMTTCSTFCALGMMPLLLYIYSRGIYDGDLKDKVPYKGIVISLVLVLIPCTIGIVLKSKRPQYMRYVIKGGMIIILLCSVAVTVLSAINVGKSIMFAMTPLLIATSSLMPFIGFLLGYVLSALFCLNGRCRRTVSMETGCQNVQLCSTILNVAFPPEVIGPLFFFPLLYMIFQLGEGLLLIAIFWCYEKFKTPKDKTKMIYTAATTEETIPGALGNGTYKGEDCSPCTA
Procedure: [3H] substrate uptake assay. [3H]taurocholate uptake assay was conducted following a protocol as previously described(60). In general, HepG2-NTCP cells were cultured in PMM for 12-24 hrs, then were treated with or without indicated chemicals before uptake assay. For substrate uptake assay, cells were generally incubated with 0.5 μl (0.5 μCi) [3H]-taurocholate dissolved in Na+ Ringer's solutions for 10 mins at 37° C. with or without the presence of chemicals. Subsequently, cells were washed once by PBS and lysed by 100 μl of 1% TritonX-100 in H2O for 5 mins at room temperature. The lysate was transferred into liquid scintillation tube and mixed with 900 μl liquid scintillation cocktail (Ultima GOLD™ XR) (Perkin Elmer, USA). Liquid scintillation counting was performed on a Perkin Elmer 1450 LSC Liquid Scintillation Counter and Luminescence Counter.

SMILES	inhibition of HBV infection (in words) (HBV [3])	further results
C[C@H](CCC(=O)NCCS(=O)(=O)O)[C@H]1CC[C@H]2[C@@H]3[C@@H](O)CC4C[C@H](OCc5cn([C@@H]6CC[C@@]7(C)C(C6)C[C@H](O)[C@H]6[C@@H]8CC[C@H]([C@H](C)CCC(=O)NCCS(=O)(=O)O)[C@@]8(C)CC[C@@H]67)nn5)CC[C@]4(C)[C@H]3CC[C@]12C (stereo partly shown) [NQL-055]		in vitro stability (antiviral potency after long incubation with the inoculum) (HBV [1]): much more stable as no significant potency decrease was observed
C[C@H](CCC(=O)NCCS(=O)(=O)O)[C@H]1CC[C@H]2[C@@H]3[C@@H](O)CC4CC(NC(=O)CCCC(=O)NC5CC[C@@]6(C)C(C5)C[C@H](O)[C@H]5[C@@H]7CC[C@H]([C@H](C)CCC(=O)NCCS(=O)(=O)O)[C@@]7(C)CC[C@@H]56)CC[C@]4(C)[C@H]3CC[C@]12C (stereo partly shown) [NQL-021]		inhibition of HBV infection on HepaRG cells (in words) (HBV [2]): inhibited HBV infection
C[C@H](CCC(=O)NCCCC1(C)N=N1)[C@H]1CC[C@H]2[C@@H]3[C@@H](O)CC4C[C@H](O)CC[C@]4(C)[C@H]3CC[C@]12C (stereo partly shown) [Diz-UDCA, Diz-Ursodeoxycholic acid]	did not show significantly improved inhibitory efficiency over the natural monomeric TUDCA	
C[C@H](CCC(=O)NCCS(=O)(=O)O)[C@H]1CC[C@H]2[C@@H]3[C@@H](O)CC4C[C@H](OC(=O)CCCCCC(=O)O[C@@H]5CC[C@@]6(C)C(C5)C[C@H](O)[C@H]5[C@@H]7CC[C@H]([C@H](C)CCC(=O)NCCS(=O)(=O)O)[C@@]7(C)CC[C@@H]56)CC[C@]4(C)[C@H]3CC[C@]12C (stereo in doubt) [NQL-019]		inhibition of HBV infection on HepaRG cells (in words) (HBV [2]): inhibited HBV infection
C[C@H](CCC(=O)NCCS(=O)(=O)O)[C@H]1CC[C@H]2[C@@H]3[C@@H](O)CC4C[C@H](NC(=O)CCCC(=O)N[C@@H]5CC[C@@]6(C)C(C5)C[C@H](O)[C@H]5[C@@H]7CC[C@H]([C@H](C)CCC(=O)NCCS(=O)(=O)O)[C@@]7(C)CC[C@@H]56)CC[C@]4(C)[C@H]3CC[C@]12C (stereo partly shown) [NQL-044]	high antiviral activity	inhibition of HDV infection (in words) (HDV): high antiviral activity; in vitro stability (antiviral potency after long incubation with the inoculum) (HBV [1]): much more stable as no significant potency decrease was observed
C[C@H](CCC(=O)NCCS(=O)(=O)O)[C@H]1CC[C@@H]2C3[C@@H](OC(=O)CC[C@@H](C)[C@H]4CC[C@@H]5C6[C@@H](CC[C@@]54C)[C@@]4(C)CC[C@H](O)CC4C[C@@H]6O)CC4C[C@@H](O)CC[C@]4(C)[C@@H]3CC[C@@]21C (stereo partly shown) [NQL-015]	high antiviral activity; also recorded: greatly improved potency	inhibition of HDV infection (in words) (HDV): high antiviral activity; also recorded: greatly improved potency; inhibition of NTCP substrate uptake (in words) (NTCP): significantly higher efficiency than that of TUDCA
C[C@H](CCC(=O)NCCS(=O)(=O)O)[C@H]1CC[C@H]2[C@H]3[C@H](CC[C@]12C)[C@@]1(C)CC[C@@H](O)CC1CC31N=N1 (stereo partly shown) [7-Diz-TUDCA]	did not show significantly improved inhibitory efficiency over the natural monomeric TUDCA	
CCN(CCCN(C)C)C(=O)OC(=O)CC[C@@H](C)[C@H]1CC[C@H]2[C@@H]3[C@@H](O)CC4C[C@H](O)CC[C@]4(C)[C@H]3CC[C@]12C (stereo partly shown) [CA-UDCA, Carbamic-UDCA]	did not show significantly improved inhibitory efficiency over the natural monomeric TUDCA	
C[C@H](CCC(=O)NCCS(=O)(=O)O)[C@H]1CC[C@H]2[C@@H]3[C@@H](O)CC4C[C@H](OC(=O)CCCCC(=O)O[C@@H]5CC[C@@]6(C)C(C5)C[C@H](O)[C@H]5[C@@H]7CC[C@H]([C@H](C)CCC(=O)NCCS(=O)(=O)O)[C@@]7(C)CC[C@@H]56)CC[C@]4(C)[C@H]3CC[C@]12C (stereo in doubt) [NQL-029]		inhibition of HBV infection on HepaRG cells (in words) (HBV [2]): inhibited HBV infection
C[C@H](CCC(=O)NCCS(=O)(=O)O)[C@H]1CC[C@H]2[C@@H]3[C@@H](O)CC4CC5(CC[C@]4(C)[C@H]3CC[C@]12C)N=N5 (stereo partly shown) [3-Diz-TUDCA]	did not show significantly improved inhibitory efficiency over the natural monomeric TUDCA	
C[C@H](CCC(=O)NCCS(=O)(=O)O)[C@H]1CC[C@H]2[C@@H]3[C@@H](O)CC4C[C@H](OC(=O)CCC(=O)O[C@@H]5CC[C@@]6(C)C(C5)C[C@H](O)[C@H]5[C@@H]7CC[C@H]([C@H](C)CCC(=O)NCCS(=O)(=O)O)[C@@]7(C)CC[C@@H]56)CC[C@]4(C)[C@H]3CC[C@]12C (stereo in doubt) [NQL-028]		inhibition of HBV infection on HepaRG cells (in words) (HBV [2]): inhibited HBV infection
C[C@H](CCC(=O)NCCS(=O)(=O)O)[C@H]1CC[C@H]2[C@@H]3[C@@H](O)CC4C[C@H](O)CC[C@]4(C)[C@H]3CC[C@]12C (stereo partly shown) [TUDCA, Tauroursodeoxycholic acid, reference compound]	most potent one among all bile acid derivatives tested	
CC(=O)O[C@@H]1CC[C@@]2(C)C(C1)C[C@H](O)[C@H]1[C@@H]3CC[C@H]([C@H](C)CCC(=O)NCCS(=O)(=O)O)[C@@]3(C)CC[C@@H]12 (stereo partly shown) [3-OAc-TUDCA]	did not show significantly improved inhibitory efficiency over the natural monomeric TUDCA	
C[C@H](CCC(=O)OCCCCC[C@@H]1SC[C@@H]2NC(=O)N[C@@H]21)[C@H]1CC[C@H]2C3[C@@H](O)CC4C[C@H](O)CC[C@]4(C)[C@H]3CC[C@]12C (stereo partly shown) [Biotin-UDCA]	did not show significantly improved inhibitory efficiency over the natural monomeric TUDCA	
C[C@H](CCC(=O)NCCS(=O)(=O)O)[C@H]1CC[C@H]2[C@@H]3[C@@H](O)CC4C[C@@H](O)CC[C@]4(C)[C@H]3CC[C@]12C (stereo partly shown) [Iso-TUDCA, Iso-tauroursodeoxycholic acid]	did not show significantly improved inhibitory efficiency over the natural monomeric TUDCA	
